Measured values as given in US10227331B2 (priority 2015, dated 2019).

What was measured:
IMP-1 = IMP-1 (Serratia marcescens, UniProt P52699); assay: biochemical; assay type: biochemical; details: CCF2-FA substrate, 2 hours at 25° C; read-out: IMP-1 IC50
Outline: (§1)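 Enzyme activity was measured by fluorescence using CCF2-FA, a cephalosporin-linked 7-hydroxycoumarin/fluorescein substrate, with inhibitor, metallo-β-lactamase and substrate incubated together for 2 hours at 25° C. IC50 came from a 4-parameter fit of inhibition versus log inhibitor concentration.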

NDM-1 = NDM-1 (Klebsiella pneumoniae, UniProt C7C422); assay: biochemical; assay type: biochemical; details: CCF2-FA substrate, 2 hours at 25° C; read-out: NDM-1 IC50
Outline: as §1

VIM-1 = VIM-1 (Pseudomonas aeruginosa (strain ATCC 15692 / DSM 22644 / CIP 104116 / JCM 14847 / LMG 12228 / 1C / PRS 101 / PAO1), UniProt A0A0F7KYQ8); assay: biochemical; details: CCF2-FA substrate, 2 hours at 25° C
Outline: as §1

[1] = system: Escherichia coli expressing NDM-1 (CLB30005, CLB30016); assay type: cell-based; details: with imipenem 1 μg/ml, 95% inhibition of bacterial growth; for Escherichia coli MITC95: NDM-1 (CLB30016)
Outline: (§2)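 Restoration of imipenem susceptibility (1 μg/ml imipenem) was judged by absorbance after 22–24 h at 35° C. Test compound was added to bacteria suspended 1:100 in 1.1× CAMHB from overnight blood-agar cultures.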

[2] = system: Klebsiella pneumoniae expressing VIM-1 (IHMA599644); assay type: cell-based; details: with imipenem 1 μg/ml, 95% inhibition of bacterial growth; for Klebsiella pneumoniae MITC95: VIM-1 (IHMA599644)
Outline: as §2

[3] = system: Serratia marcescens expressing IMP-1 (CL5741); assay type: cell-based; details: with imipenem 1 μg/ml, 95% inhibition of bacterial growth; for Serratia marcescens MITC95: IMP-1 (CL5741)
Outline: as §2

[4] = system: P. aeruginosa expressing IMP-1, efflux+ (MB9798); assay type: cell-based, Pseudomonas aeruginosa; details: for P. aeruginosa expressing IMP-1, efflux+ (MB9798) MITC95: imipenem at 2 μg/mL, in the presence of a class A, C, D serine β-lactamase inhibitor closely related to relebactam; for Efflux ratio: ratio MITC95 PA_9798/MITC95 PA_9799
Source text: (§3) The strain background is Pseudomonas aeruginosa PAO1.

[5] = system: P. aeruginosa expressing IMP-1, efflux− (MB9799); assay: Efflux: concentration of MBL inhibitor which restores susceptibility to imipenem; assay type: cell-based, Pseudomonas aeruginosa; details: imipenem at 2 μg/mL, in the presence of a class A, C, D serine β-lactamase inhibitor closely related to relebactam
Source text: as §3

Chain of IMP-1 (P52699 whole entry, looked up, species assumed): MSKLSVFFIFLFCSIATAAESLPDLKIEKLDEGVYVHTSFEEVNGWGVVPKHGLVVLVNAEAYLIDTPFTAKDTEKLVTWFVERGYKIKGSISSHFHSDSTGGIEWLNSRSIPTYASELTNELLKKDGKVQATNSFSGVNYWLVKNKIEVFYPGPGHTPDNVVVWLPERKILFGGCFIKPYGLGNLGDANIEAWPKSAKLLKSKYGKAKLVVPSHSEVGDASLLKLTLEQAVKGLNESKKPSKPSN
Chain of NDM-1 (C7C422 whole entry, looked up, species assumed): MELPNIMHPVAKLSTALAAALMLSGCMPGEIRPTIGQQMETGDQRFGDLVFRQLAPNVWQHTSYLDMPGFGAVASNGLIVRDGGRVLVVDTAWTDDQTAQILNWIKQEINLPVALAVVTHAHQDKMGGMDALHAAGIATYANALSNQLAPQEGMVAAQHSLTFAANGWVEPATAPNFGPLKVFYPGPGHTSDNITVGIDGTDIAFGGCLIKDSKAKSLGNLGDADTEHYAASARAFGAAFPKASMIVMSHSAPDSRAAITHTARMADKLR

Row | Compound | IC50 (IMP-1) [nM] | IC50 (NDM-1) [nM] | IC50 (VIM-1) [nM] | Escherichia coli expressing NDM-1 (CLB30016) MITC95 [1] [µM] | Klebsiella pneumoniae expressing VIM-1 (IHMA599644) MITC95 [2] [µM] | Serratia marcescens expressing IMP-1 (CL5741) MITC95 [3] [µM] | P. aeruginosa expressing IMP-1, efflux+ (MB9798) MITC95 [4] [µM] | Efflux ratio [4] | P. aeruginosa expressing IMP-1, efflux− (MB9799) MITC95 [5] [µM] | Escherichia coli MITC95 [1] [µM] | Klebsiella pneumoniae MITC95 [2] [µM] | Serratia marcescens MITC95 [3] [µM]
1 | Cc1ccc(-c2ccc(S(=O)(=O)C3CNC3)c(S(N)(=O)=O)c2-c2nn[nH]n2)c2nc(N)[nH]c12 [Example 15, 3-(2-Amino-7-methyl-1H-benzo[d]imidazol-4-yl)-6-(azetidin-3-ylsulfonyl)-2-(2H-tetrazol-5-yl)benzenesulfonamide] | 0.613 | 0.0897 | 0.206 | 0.3906 | 0.7813 | 0.3906 | 0.3906 | 1.00 | 0.3906 | – | – | –
2 | NS(=O)(=O)c1c(S(=O)(=O)C2CNC2)ccc(-c2ccc3scnc3c2)c1-c1nnn[nH]1.O=C(O)C(F)(F)F [Example 114, 3-((4-(benzo[d]thiazol-5-yl)-2-sulfamoyl-3-(1H-tetrazol-5-yl)phenyl)sulfonyl)azetidin-1-ium 2,2,2-trifluoroacetate] | 0.261 | 0.15 | 0.116 | 0.3906 | 1.563 | 0.7813 | 6.25 | 8.00 | 0.7813 | – | – | –
3 | Nc1nc2cccc(-c3ccc(S(=O)(=O)C4CCN(CCO)CC4)c(S(N)(=O)=O)c3-c3nn[nH]n3)c2[nH]1 [Example 47, 3-(2-amino-3H-benzo[d]imidazol-4-yl)-6-(1-(2-hydroxyethyl)piperidin-4-ylsulfonyl)-2-(2H-tetrazol-5-yl)benzenesulfonamide] | 0.846 | 0.214 | 0.361 | 1.563 | 3.125 | 3.125 | 6.25 | 4.00 | 1.563 | – | – | –
4 | NS(=O)(=O)c1c(S(=O)(=O)C2CNC2)ccc(-c2csc(N3CCOCC3)n2)c1-c1nnn[nH]1.O=C(O)C(F)(F)F [Example 124, 3-((4-(2-morpholinothiazol-4-yl)-2-sulfamoyl-3-(1H-tetrazol-5-yl)phenyl)sulfonyl)azetidin-1-ium 2,2,2-trifluoroacetate] | 6.1 | 1.5 | 4.95 | 3.125 | 12.5 | 6.25 | 200 | 127.96 | 1.563 | – | – | –
5 | Nc1nc2c(-c3ccc(S(=O)(=O)[C@@H]4CN[C@H](CO)C4)c(S(N)(=O)=O)c3-c3nn[nH]n3)cccc2s1 [Example 349, 3-(2-Aminobenzo[d]thiazol-4-yl)-6-(((3 S,5S)-5-(hydroxymethyl)pyrrolidin-3-yl)sulfonyl)-2-(2H-tetrazol-5-yl)benzenesulfonamide] | 0.22 | 0.0659 | 0.452 | – | – | – | 1.563 | 1.00 | 1.563 | 3.125 | 3.125 | 1.563
6 | NS(=O)(=O)c1c(S(=O)(=O)C2CNC2)ccc(-c2cccc3[nH]c(C(=O)O)nc23)c1-c1nn[nH]n1 [Example 253, 4-(4-(Azetidin-3-ylsulfonyl)-3-sulfamoyl-2-(2H-tetrazol-5-yl)phenyl)-1H-benzo[d]imidazole-2-carboxylic Acid] | 0.664 | 0.173 | 0.294 | – | – | – | 1.563 | 1.00 | 1.563 | 1.563 | 3.125 | 1.563
7 | Nc1ncccc1-c1ccc(S(=O)(=O)C2CNC2)c(S(N)(=O)=O)c1-c1nn[nH]n1 [Example 219, 3-(2-aminopyridin-3-yl)-6-(azetidin-3-ylsulfonyl)-2-(2H-tetrazol-5-yl) benzenesulfonamide] | 5.66 | 0.647 | 0.52 | 0.125 | 1.281 | 0.6406 | 6.25 | 4.88 | 1.281 | – | – | –
8 | NCCS(=O)(=O)c1ccc(-c2cccc(NC(=O)[C@H](N)CO)c2)c(-c2nn[nH]n2)c1S(N)(=O)=O [compound 334, (R)-2-amino-N-(4′-((2-aminoethyl)sulfonyl)-3′-sulfamoyl-2′-(2H-tetrazol-5-yl)-[1,1′-biphenyl]-3-yl)-3-hydroxypropanamide] | 4.54 | 2.53 | 0.504 | – | – | – | 12.5 | 8.00 | 1.563 | 1.563 | 3.125 | 3.125
9 | NCCS(=O)(=O)c1ccc(-c2cccc(S(=O)(=O)NC3CC3)c2)c(-c2nnn[nH]2)c1S(N)(=O)=O.O=C(O)C(F)(F)F [Example 161, 2-((3′-(N-cyclopropylsulfamoyl)-3-sulfamoyl-2-(1H-tetrazol-5-yl)-[1,1′-biphenyl]-4-yl)sulfonyl)ethanaminium 2,2,2-trifluoroacetate] | 1.69 | 3.47 | 3.04 | 6.25 | 12.5 | 6.25 | 50 | 31.99 | 1.563 | – | – | –
10 | Cn1nc(N)c2c(-c3ccc(S(=O)(=O)CCN)c(S(N)(=O)=O)c3-c3nnn[nH]3)cccc21 [Example 266, 3-(3-amino-1-methyl-1H-indazol-4-yl)-6-((2-aminoethyl)sulfonyl)-2-(1H-tetrazol-5-yl) benzenesulfonamide] | 0.643 | 0.198 | 0.232 | – | – | – | 6.25 | 2.00 | 3.125 | 6.25 | 6.25 | 3.125
11 | NCCS(=O)(=O)c1ccc(-c2cccc3[nH]c(C(F)(F)F)nc23)c(-c2nn[nH]n2)c1S(N)(=O)=O [Example 308, 6-((2-aminoethyl)sulfonyl)-2-(2H-tetrazol-5-yl)-3-(2-(trifluoromethyl)-1H-benzo[d]imidazol-4-yl)benzenesulfonamide] | 0.56 | 0.17 | 0.219 | – | – | – | 6.25 | 4.00 | 1.563 | 3.125 | 3.125 | 3.125
